# Where two headings read alike, the source gives them in different places. Bridge positions count the residues as written; N and C are the ends. Square brackets hold non-standard residues; d marks the D form. Peptide text beside a SMILES is read from it. * marks the point of attachment. Ileψ(thiazoline)Cys = CC[C@H](C)[C@H](N)C1=N[C@H](C(=O)*)CS1; αMeP = C[C@@]1(C(=O)O)CCCN1; dOrn = NCCC[C@@H](N)C(=O)O
# Assays:
# [1] = test system: Caco-2 epithelial membrane; experiment: Permeability of G-2MePE and TEER across Caco-2 cells with permeation enhancers; type: in vitro ADME, human
# Procedure: The purpose of this study was to determine if permeability enhancers can increase transport of G-2MePE across Caco-2 cell layers.
# G-2MePE was added in three or six replicates to the donor sides of Transwells containing Caco-2 cells in the absence or presence of various permeation enhancers (FIG. 4), 1.5 ml transport buffer was added to the receptor side. The Transwells were then left to incubate. […] After each sample was taken, 0.4 ml of fresh HBSS buffer was added to the side of the Transwell from which sample was taken. Subsequently, 0.1 ml donor solution was collected to measure the concentration of the intact G-2MePE. Following each sampling, 0.1 ml of G-2MePE at the same concentration was replaced.
# Peptidolysis was terminated by adding the same volume of HCl (0.2M) to each sample. […] Supernatants were collected, dried by Speed Vacuum, diluted with mobile phase and analysed by spectrofluorophotometer. […] Transepthelial electric resistance (TEER) was measured using a Millipore voltage meter at different time points.
# [2] = test system: Caco-2 epithelial cell layer; experiment: Permeability of fluorescein and TEER across Caco-2 cells with permeation enhancers; type: in vitro ADME, human
# Procedure: The purpose of this study was to determine the appearance permeation coefficient (Papp) and transepithelial electrical resistance (TEER) across confluent cultures of Caco-2 epithelial cells caused by a typical hydrophilic material.
# Integrity of Caco-2 cell cultures was assessed by measuring the TEER and the leakage of ^14C-mannitol or fluorescein across confluent cultures. Inserts with confluent cell cultures and an electrical resistance of greater than 300 Ω/cm^2, were considered appropriate for these studies. Fluorescein or 0.5 μCi/50 μl of ^14C-mannitol was added to the apical cell and incubated for 1-4 hours. The acceptable leakage was considered to be <0.5-1%. 6 inserts with good integrity were chosen and then washed with transport buffer. The medium from all apical and basolateral wells was removed. The cell cultures were washed twice with warm 37° C. transport buffer.
# The solution on the transwell receptor side was then replaced with 0.4 ml of fresh HBSS, and we collected 0.1 ml from the donor side (then replaced with 0.1 ml sodium fluorescein at the same concentration). The reaction was terminated from donor side by adding the same volume HCl (0.2M) or by 3:1 Acetonitril/methonal with 2% acetic acid to each sample. […] Supernatants were collected, dried by Speed Vacuum, diluted with mobile phase and the resulting sample was analysed by spectrofluorophotometer. The apparent permeability coefficient was used to compare the permeability between control and treatment groups (FIG. 4). Transepithelial electric resistance (TEER) was measured using a Millipore voltage meter at different time points.
# Caco-2 cells [3] = type: in vitro ADME, human; conditions: Caco-2, pH 7.4
# Procedure: Fresh medium was replaced every 2-3 days. Cells were cultured at 37° C. for 12-14 days for uptake assay study. The uptake assay study was commenced after cells reached confluency, i.e., after 12-14 days in culture. Each dish was washed with HEPES (pH 7.4). […] The cells were scraped off with a cell scraper into an extraction solution and centrifuged at 20,000 g for 20 min. […] The pellet was diluted by NaOH to determine the protein content by Lowry assay.
# Caco-2 cells [4] = experiment: Cytotoxicity: sulforhodamine B (SRB) growth inhibition of Caco-2 cells; conditions: read-out: IC50 of G-2MePE, growth of Caco-2 cells
# Procedure: (§1) The purpose of this study growth was to determine if GPE and/or G-2MePE can inhibit growth of cells.
# (§2) The cells were fixed by TCA and SRB was added to each well. Cell-bound dye was extracted with Tris base buffer to solubilize the dye and the absorbance determined by a plate reader at 570 nm. Inhibition of growth was expressed as relative viability (% control) and the IC50 was calculated from the concentration-response curves after log/probit transformation.
# Caco-2 cells [5] = type: in vitro ADME, human
# Procedure: The purpose of these studies was to determine the effect of pH on the degradation of G-2MePE by Caco-2 cells.
# 100 μg/ml G-2MePE was added to the apical side of confluent cultures of Caco-2 cells in different pH conditions. Samples were taken at 0, 15, 30, 45, 60, 90, 120, 150, 180, 210, 240 min later. Samples were centrifuged at 20,000 g for 15 min and 50 μl supernatant was injected to the column of HPLC. […] Peptidolytic activity and half-life of G-2MePE were then determined in different pH condition.
# Caco-2 cell monolayer = experiment: Stability of GPE and G-2MePE in the presence of Caco-2 cells; type: in vitro ADME, human; conditions: 50-100 μg/ml, HBSS pH 7.4, HPLC
# Procedure: The collected samples were extracted by adding 400 μl of 0.04M sulphuric acid into test tubes, each of which contained 50 μl of a sample. The test tubes were left on ice for 5 min and vortexed. The 50 μl of 10% sodium tungstate was added to each tube and the tubes were vortexed immediately and left on ice for 10 min, vortexed again and left on ice for another 10 min. The cells were centrifuged at 20,000 g at 4° C. for 20 min. The supernatant was collected for testing. […] The protein content of samples was measured by Lowry assay.
# Caco-2 cells [6] = test system: Caco-2 cells
# Procedure: as §1, §2
# in vitro = conditions: human, Caco-2
# Procedure: as §1, §2
smiles,measurement,setting,value
CCCCCCCCCC(=O)[O-].[Na+] [Sodium caprate],permeability of the Caco-2 epithelial membrane to G-2MePE,"[1]; EDTA 30 mM, sodium caprate 20 mM, taurocholate 20 and 30 mM, citric acid 30 mM, bacitracin 3.5 mM",significantly increased
same,TEER of Caco-2 cell layer,"[1]; G-2MePE transport, EDTA 30 mM, sodium caprate 20 mM, taurocholate 20 & 30 mM, citric acid 30 mM",significantly reduced
same,relative effect on fluorescein permeability,[2]; 20 mM caprate vs 20 mM taurocholate,greater than the effect of the same concentration of taurocholate
same,TEER of Caco-2 cell layer,"[2]; fluorescein transport experiment, 3 h, sodium caprate 10 or 20 mM, taurocholate 30 mM, EDTA 40 mM, SDA 1 mM",reduced the TEER
same,permeability of the Caco-2 epithelial cell layer to fluorescein,"[2]; sodium caprate 10 or 20 mM, taurocholate 30 mM, EDTA 40 mM, SDA 1 mM, 3 h",significantly (P<0.05) increased
"C[C@@]1(C(=O)N[C@@H](CCC(=O)O)C(=O)O)CCCN1C(=O)CN [Formulation G-2MePE, Glycyl-2-Methylprolyl Glutamate] (H-Gly-[αMeP]-Glu-OH)",uptake of G-2MePE by Caco-2 cells,Caco-2 cells [3],1.3%
same,IC50,Caco-2 cells [4]; 24 hours,4.64 mM
same,IC50,Caco-2 cells [4]; 48 hours,3.66 mM
same,IC50,Caco-2 cells [4]; 72 hours,2.24 mM
same,IC50,Caco-2 cells [4]; 96 hours,1.09 mM
same,IC50,Caco-2 cells [4]; 120 hours,1.01 mM
same,pH at which G-2MePE is stable,Caco-2 cells [5]; Caco-2,≤ 5.5
same,degradation in basic conditions,"Caco-2 cells [5]; Caco-2, pH 7",Moderate degradation
"NCC(=O)N1CCC[C@H]1C(=O)N[C@@H](CCC(=O)O)C(=O)O [GPE, glycyl-prolyl-glutarnate]",metabolites identified in the presence of Caco-2 cells,Caco-2 cell monolayer,Four
same,IC50,Caco-2 cells [6],≥ 15 mM
same,inhibition at 15 mM,in vitro,35%
CC[C@H](C)[C@H](N)C1=N[C@H](C(=O)N[C@@H](CC(C)C)C(=O)N[C@H](CCC(=O)O)C(=O)N[C@H](C(=O)N[C@H]2CCCCNC(=O)[C@H](CC(N)=O)NC(=O)[C@@H](CC(=O)O)NC(=O)[C@H](Cc3cnc[nH]3)NC(=O)[C@@H](Cc3ccccc3)NC(=O)[C@H]([C@@H](C)CC)NC(=O)[C@@H](CCCN)NC2=O)[C@@H](C)CC)CS1 [bacitracin] ({Ileψ(thiazoline)Cys}-L[dE]IK[dOrn]I[dF]H[dD]N; lactam 4-C),permeability of the Caco-2 epithelial membrane to G-2MePE,[1]; Caco-2,significantly increased
